Results: article PMC9564220, “Dipeptidyl peptidase-4 inhibitory potentials of Glycyrrhiza uralensis and its bioactive compounds licochalcone A and licochalcone B: An in silico and in vitro study” (Frontiers in Molecular Biosciences, 2022)

Molecular target: T1, Dipeptidyl peptidase-4 (DPP-4) (Homo sapiens, UniProt P27487)
T1 construct: gene DPP4
Assay: fluorescence DPP-4 inhibitor screening kit (Sigma Aldrich), kinetic mode
Type: biochemical

T1 sequence (P27487 whole entry): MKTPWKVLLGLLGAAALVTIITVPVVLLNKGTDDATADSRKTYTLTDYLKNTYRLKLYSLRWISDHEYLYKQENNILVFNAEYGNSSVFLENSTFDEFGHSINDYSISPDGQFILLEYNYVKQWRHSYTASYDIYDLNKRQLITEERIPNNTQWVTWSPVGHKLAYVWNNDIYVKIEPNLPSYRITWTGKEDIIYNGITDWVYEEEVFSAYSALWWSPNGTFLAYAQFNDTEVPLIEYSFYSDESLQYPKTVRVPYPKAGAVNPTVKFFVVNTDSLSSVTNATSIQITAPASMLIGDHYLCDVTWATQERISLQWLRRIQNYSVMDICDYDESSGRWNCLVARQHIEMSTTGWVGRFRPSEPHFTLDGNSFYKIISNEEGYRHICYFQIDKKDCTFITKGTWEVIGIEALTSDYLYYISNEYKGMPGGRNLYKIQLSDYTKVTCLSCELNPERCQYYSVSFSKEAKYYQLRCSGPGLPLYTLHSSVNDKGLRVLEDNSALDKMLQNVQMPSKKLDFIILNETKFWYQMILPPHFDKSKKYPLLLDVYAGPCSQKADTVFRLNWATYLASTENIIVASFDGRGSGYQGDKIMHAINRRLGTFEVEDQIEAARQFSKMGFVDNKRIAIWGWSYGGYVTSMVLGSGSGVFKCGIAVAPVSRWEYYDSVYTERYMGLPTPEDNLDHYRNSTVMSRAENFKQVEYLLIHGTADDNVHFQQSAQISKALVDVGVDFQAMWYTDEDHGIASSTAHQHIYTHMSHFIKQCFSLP

IC50 [µM]	Compound
~348	C=CC(C)(C)c1cc(/C=C/C(=O)c2ccc(O)cc2)c(OC)cc1O [LicA, licochalcone A]
~798	COc1c(/C=C/C(=O)c2ccc(O)cc2)ccc(O)c1O [LicB, licochalcone B]
